# Patent publication US10723778B2, “Variants of adrenomedullin and calcitonin gene-related peptide and methods of use” (The Board of Regents of the University of Oklahoma, priority 2015, dated 2020)
# Read-outs that look alike come from different tables or passages of the source. Where no end group is shown, it is not given here.
# Assays:
# [1] = molecular target: T1, RAMP1-CLR ECD (CGRP); purified MBP-RAMP1 ECD-(GS)5-CLR ECD-H6 fusion protein (Homo sapiens, UniProt O60894+Q16602); test: Fluorescence polarization (FP) peptide binding competition assay, CGRP receptor ECD complex; conditions: for Receptor Selectivity (in words): CGRP vs AM1 receptor ECD complexes; for Receptor Selectivity, fold for CGRP: CGRP (RAMP1-CLR ECD) over AM1 (RAMP2-CLR ECD)
# T1 construct: MBP-hRAMP1.24-111-(Gly-Ser)5-hCLR.29-144-H6; made in house; host or cells: E. coli
# Experimental: (§1) Fluorescence polarization peptide binding assay. […] The reactions (50 μL) were incubated for 2 hours at room temperature to reach equilibrium, and the anisotropy was measured in black half-area 96-well plates using a BMG LABTECH's POLARstar® Omega plate reader (Ortenberg, Germany). The reaction buffer was 50 mM HEPES, pH 7.5, 150 mM NaCl, 0.5 mg/ml fatty acid-free BSA, 0.5 mM EDTA, 0.5 mM maltose. Ki values were calculated using nonlinear regression fitting of the competition curves to the exact analytical equations of Roehrl et al. (Biochemistry (2004) 43:16056-66) using GraphPad Prism 5.0 (GraphPad Software, San Diego Calif.).
# (§2) The ability of the indicated peptides to displace a FITC-Ahx-AM(37-52)NH2 [S45W, Q50W] probe (7 nM) from purified MBP-RAMP1 ECD-(GS)5-CLR ECD-H6 fusion protein (15 nM) was assessed by fluorescence polarization (anisotropy). The reactions were incubated for 2 hours at room temperature to reach equilibrium, and the anisotropy was measured in black half-area 96-well plates using a BMG LABTECH's POLARstar® Omega plate reader (Ortenberg, Germany). The reaction buffer was 50 mM HEPES, pH 7.5, 150 mM NaCl, 0.5 mg/ml fatty acid-free BSA, 0.5 mM EDTA, 0.5 mM maltose. KI values were calculated using nonlinear regression fitting of the competition curves to the exact analytical equations of Roehrl et al. (Biochemistry (2004) 43:16056-66) using GraphPad Prism 5.0 (GraphPad Software, San Diego Calif.).
# as §2, with “Single representative experiments conducted with duplicate samples are shown. Error bars are S.E.M. The ability” for “The ability”, “displace a FITC-Ahx-AM(37-52)NH2[S45W, Q50W] probe” for “displace a FITC-Ahx-AM(37-52)NH2 [S45W, Q50W] probe”
# A fluorescence polarization/anisotropy (FP) peptide-binding assay was developed using N-terminally FITC-labeled AM(37-52) S45W/Q50W as the probe, hereafter “FITC-AM W/W.” The probe was custom synthesized and HPLC-purified by RS Synthesis. The large size difference between the MBP-RAMP ECD-CLR ECD fusion proteins (˜65 kDa) and the probe (˜2.5 kDa) ensures a significant anisotropy difference between bound and free states of the probe. […] Kd values for the probe at each of the tethered ECD fusion proteins were determined in equilibrium saturation binding experiments (data not shown), and KI values were determined for unlabeled peptides in equilibrium competition experiments (Table 1; FIGS. 2-5). The data were analyzed according to exact analytical equations using non-linear regression curve fitting in GraphPad Prism 5.0 (GraphPad Software) via user-defined equations.
# [2] = molecular target: T2, RAMP2-CLR ECD (AM1); purified MBP-RAMP2 ECD [L106R]-(GS)5-CLR ECD-H6 fusion protein (Homo sapiens, UniProt O60895+Q16602, L106R); test: Fluorescence polarization (FP) peptide binding competition assay, AM1 receptor ECD complex; conditions: for Ki / RAMP2-CLR ECD (AM1) KI (nM): FP competition, FITC-AM W/W probe 7 nM, fusion protein 110 nM
# T2 construct: MBP-hRAMP2.55-140 [L106R]-(Gly-Ser-Ala)3-hCLR.29-144-H6; made in house; host or cells: E. coli
# Experimental: as §1
# FIG. 3(A-K) depicts binding of (A) AM-based peptide AM(37-52)NH2, and variant peptide AM(37-52)NH2[S45W, Q50W]; (B) AM-based peptide AM(37-52)NH2, variant peptide AM(37-52)NH2[Q50F], and variant peptide AM(37-52)NH2[Q50W]; (C) variant peptides AM(37-52)NH2[K46L], AM(37-52)NH2[K46M], and AM(37-52)NH2[D39F]; (D) variant peptides AM(37-52)NH2[D39F, K46L, Q50W], AM(37-52)NH2[D39F, K46L, Q50W, Y52F], and AM(37-52)NH2[S45W, K46L, Q50W, Y52F]; (E) variant peptides AM(37-52)NH2[[D39K], AM(37-52)NH2[K46L, Q50W], and AM(37-52)NH2[K46L, Q50W, Y52F]; (F) variant peptides AM(37-52)NH2[S45W, K46M, Q50W, Y52F], and AM(37-52)NH2[S45W, K46W, Q50W, Y52F]; (G) variant peptides AM(37-52)NH2[S45T, K46W, Q50W], AM(37-52)NH2[S45T, K46L, Q50W], and AM(37-52)NH2[S45W, K46L, S48G, Q50W, Y52F]; (H) variant peptide AM(37-52)NH2[S45W, K46L, I47M, Q50W, Y52F]; (I) variant peptides AM(37-52)NH2[S45R, K46W, Q50W], and AM(37-52)NH2[S45R, K46L, Q50W]; (J) variant peptides AM(37-52)NH2[S45R, K46W, S48G, Q50W], AM(37-52)NH2[S45R, K46L, S48G, Q50W], and AM(37-52)NH2[S45R, K46W, I47L, S48G, Q50W]; and (K) variant peptides AM(37-52)NH2[D39W, Q50W], and AM(37-52)NH2[D37V, S45W, K46L, Q50W, Y52F], to the purified AM1 receptor extracellular domain complex. Single representative experiments conducted with duplicate samples are shown. […] The reactions were incubated for 2 hours at room temperature to reach equilibrium, and the anisotropy was measured in black half-area 96-well plates using a BMG LABTECH's POLARstar® Omega plate reader (Ortenberg, Germany). The reaction buffer was 50 mM HEPES, pH 7.5, 150 mM NaCl, 0.5 mg/ml fatty acid-free BSA, 0.5 mM EDTA, 0.5 mM maltose. KI values were calculated using nonlinear regression fitting of the competition curves to the exact analytical equations of Roehrl et al. (Biochemistry (2004) 43:16056-66) using GraphPad Prism 5.0 (GraphPad Software, San Diego Calif.).
# as §1, with “Single representative experiments conducted with duplicate samples are shown.” for “Fluorescence polarization peptide binding assay.”, “reactions” for “reactions (50 μL)”, “KI” for “Ki”
# A fluorescence polarization/anisotropy (FP) peptide-binding assay was developed using N-terminally FITC-labeled AM(37-52) S45W/Q50W as the probe, hereafter “FITC-AM W/W.” The probe was custom synthesized and HPLC-purified by RS Synthesis. The large size difference between the MBP-RAMP ECD-CLR ECD fusion proteins (˜65 kDa) and the probe (˜2.5 kDa) ensures a significant anisotropy difference between bound and free states of the probe. […] Kd values for the probe at each of the tethered ECD fusion proteins were determined in equilibrium saturation binding experiments (data not shown), and KI values were determined for unlabeled peptides in equilibrium competition experiments (Table 1; FIGS. 2-5).
# [3] = RAMP1-CLR ECD (CGRP) KI (nM), FP competition, FITC-AM W/W probe 7 nM, fusion protein 15 nM
# [4] = read-out: RAMP2-CLR ECD (AM1) KI
# [5] = FP competition, FITC-AM W/W probe 7 nM, fusion protein 15 nM
Substance,"Ki [1, 3]","Receptor Selectivity, fold for CGRP ([1]; FP assay)",also measured
DKFNVAPRSLISPWGF-NH2 [D39F/K46L/Q50W/Y52F],25 nM,1213-fold for CGRP,"Ki ([2]; mean ± S.E.M, read-out: RAMP2-CLR ECD (AM1) pKI (converted)): 28200 nM"
DKDNVAPRSLISPQGY [Peptide K46L],–,–,"RAMP1-CLR ECD (CGRP) KI (nM) [1, 5]: No binding; RAMP2-CLR ECD (AM1) KI (nM) [2]: No binding"
DKDNVAPRSMISPQGY [Peptide K46M],–,–,"RAMP1-CLR ECD (CGRP) KI (nM) [1, 5]: No binding; RAMP2-CLR ECD (AM1) KI (nM) [2]: No binding"
DKFNVAPRSLISPWGY-NH2 [D39F/K46L/Q50W],82.2 nM,22-fold for CGRP,"Ki ([1]; RAMP1-CLR ECD (CGRP) pKI, FP competition, FITC-AM W/W probe 7 nM, fusion protein 15 nM, mean ± S.E.M of at least 3 independent experiments): 79.4 nM"
DKDNVAPRSLISPWGF-NH2 [K46L/Q50W/Y52F],31.6 nM,2820-fold for CGRP,–
DKKNVAPRSKISPQGY-NH2 [Peptide D39K],–,–,"Receptor Selectivity (in words) ([1]; FP assay): AM1; RAMP1-CLR ECD (CGRP) KI (nM) [1, 5]: No binding"
DKDNVAPRWKISPWGY-NH2 [S45W/Q50W],44.7 nM,–,Receptor Selectivity (in words) ([1]; FP assay): Non-selective
DKDNVAPRSKISPFGY-NH2 [Peptide Q50F],10500 nM,–,"Receptor Selectivity, fold for AM1 ([2]; AM1 (RAMP2-CLR ECD) over CGRP (RAMP1-CLR ECD), FP assay): 5-fold for AM1"
DKDNVAPRWWISPWGF-NH2 [S45W/K46W/Q50W/Y52F],24 nM,692-fold for CGRP,–
DKDNVAPRTWISPWGY-NH2 [S45T/K46W/Q50W],439 nM,28-fold for CGRP,–
D39F: AM(37-52)NH2 scaffold variant peptide with D39F substitution (DKFNVAPRSKISPQGY-NH2) [Peptide D39F],–,–,"RAMP1-CLR ECD (CGRP) KI (nM) [1, 5]: No binding; RAMP2-CLR ECD (AM1) KI (nM) [2]: No binding"
DKDNVAPRTLISPWGY-NH2 [S45T/K46L/Q50W],65.6 nM,24-fold for CGRP,–
DKDNVAPRSLISPWGY-NH2 [K46L/Q50W],70.8 nM,23-fold for CGRP,–

# Further lines, with some results ahead:
"Ki [1, 3]","Receptor Selectivity, fold for CGRP ([1]; FP assay)",Substance,also measured
2.95 nM,–,FVPTDVGPFSF-NH2 [N31D/S34P/K35F/A36S],"Receptor Selectivity (in words) ([1]; FP assay): CGRP over AM1; Ki [2, 4]: > 10000 nM"
17.6 nM,821-fold for CGRP,FVPTDTGPWGY-NH2 [N31D/V32T/S34P/K35W/A36G/F37Y],–
8.13 nM,–,FVPTDVGPWAF-NH2 [N31D/S34P/K35W],Receptor Selectivity (in words) ([1]; FP assay): CGRP; RAMP2-CLR ECD (AM1) KI (nM) [2]: No binding
6.85 nM,–,FVPTDTGPWGF-NH2 [N31D/V32T/S34P/K35W/A36G],Receptor Selectivity (in words) ([1]; FP assay): CGRP; RAMP2-CLR ECD (AM1) KI (nM) [2]: No binding
1.32 nM,245-fold for CGRP,FVPTDVGPWSY-NH2 [N31D/S34P/K35W/A36S/F37Y],"Ki [2, 4]: 324 nM"
< 1 nM,≥2754-fold for CGRP,FVPTDTGPWSF-NH2 [N31D/V32T/S34P/K35W/A36S],KI for the CGRP receptor ECD complex ([1]; FP assay): well into the pM range
7.94 nM,977-fold for CGRP,DKDNVAPRWMISPWGF-NH2 [S45W/K46M/Q50W/Y52F],–
0.78 nM,–,DKDNVAPRWLMSPWGF-NH2 [S45W/K46L/I47M/Q50W/Y52F],"Receptor Selectivity (in words) ([1]; FP assay): CGRP (very selective); Ki ([1]; KI for the CGRP receptor ECD complex, FP assay): ~0.78 nM; RAMP2-CLR ECD (AM1) KI (nM) [2]: No binding; RAMP2-CLR ECD (AM1) KI (nM) ([2]; listed as AM(37-52)NH2[S45W, K46L, I47M, Q50W, Y52F]): no binding"
